Measured values published in ChEMBL document CHEMBL5705888, “Substrate specificity and inhibitors of LRRK2, a protein kinase mutated in Parkinson's disease” (Biochem J, 2009).

Legend:
[1] = target: MAP kinase-interacting serine/threonine-protein kinase 2 (Homo sapiens) (UniProt Q9HBH9); assay: Inhibition of MNK2 (unknown origin) at 10 uM incubated for 30 mins in presence of [gamma-33P]ATP by multidrop micro reagent based assay relative to control; values are per cent of control
[2] = target: T1, Mitogen-activated protein kinase kinase kinase kinase 2 (Homo sapiens) (UniProt Q12851); assay: Inhibition of GCK (unknown origin) at 10 uM incubated for 30 mins in presence of [gamma-33P]ATP by multidrop micro reagent based assay relative to control; values are per cent of control
T1 sequence (whole entry): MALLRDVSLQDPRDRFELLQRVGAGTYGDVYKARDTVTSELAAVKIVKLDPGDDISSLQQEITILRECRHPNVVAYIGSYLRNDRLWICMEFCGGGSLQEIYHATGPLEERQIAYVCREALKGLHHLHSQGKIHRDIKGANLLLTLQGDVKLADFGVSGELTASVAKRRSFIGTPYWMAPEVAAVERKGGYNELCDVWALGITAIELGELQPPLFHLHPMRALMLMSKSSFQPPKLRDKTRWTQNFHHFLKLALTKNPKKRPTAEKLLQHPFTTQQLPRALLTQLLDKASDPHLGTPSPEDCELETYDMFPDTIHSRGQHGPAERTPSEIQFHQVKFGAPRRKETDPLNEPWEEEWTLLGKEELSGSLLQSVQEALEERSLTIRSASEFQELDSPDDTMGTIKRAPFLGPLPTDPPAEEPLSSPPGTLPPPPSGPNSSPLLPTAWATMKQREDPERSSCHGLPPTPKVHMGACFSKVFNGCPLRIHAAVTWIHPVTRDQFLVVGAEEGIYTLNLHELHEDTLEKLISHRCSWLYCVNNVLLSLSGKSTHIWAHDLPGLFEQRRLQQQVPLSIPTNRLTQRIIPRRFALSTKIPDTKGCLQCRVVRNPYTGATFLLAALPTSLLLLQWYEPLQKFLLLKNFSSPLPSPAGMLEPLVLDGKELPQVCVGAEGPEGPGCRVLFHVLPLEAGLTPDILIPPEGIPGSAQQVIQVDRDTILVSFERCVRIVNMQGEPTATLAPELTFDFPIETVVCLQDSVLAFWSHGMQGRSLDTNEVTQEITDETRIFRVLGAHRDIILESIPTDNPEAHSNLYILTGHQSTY

[3] = target: Mitogen-activated protein kinase kinase kinase 9 (Homo sapiens) (UniProt P80192); assay: Inhibition of MLK1 (unknown origin) at 10 uM incubated for 30 mins in presence of [gamma-33P]ATP by multidrop micro reagent based assay relative to control; values are per cent of control
Mitogen-activated protein kinase kinase kinase 9 (Homo sapiens), sequence (P80192 whole entry, looked up): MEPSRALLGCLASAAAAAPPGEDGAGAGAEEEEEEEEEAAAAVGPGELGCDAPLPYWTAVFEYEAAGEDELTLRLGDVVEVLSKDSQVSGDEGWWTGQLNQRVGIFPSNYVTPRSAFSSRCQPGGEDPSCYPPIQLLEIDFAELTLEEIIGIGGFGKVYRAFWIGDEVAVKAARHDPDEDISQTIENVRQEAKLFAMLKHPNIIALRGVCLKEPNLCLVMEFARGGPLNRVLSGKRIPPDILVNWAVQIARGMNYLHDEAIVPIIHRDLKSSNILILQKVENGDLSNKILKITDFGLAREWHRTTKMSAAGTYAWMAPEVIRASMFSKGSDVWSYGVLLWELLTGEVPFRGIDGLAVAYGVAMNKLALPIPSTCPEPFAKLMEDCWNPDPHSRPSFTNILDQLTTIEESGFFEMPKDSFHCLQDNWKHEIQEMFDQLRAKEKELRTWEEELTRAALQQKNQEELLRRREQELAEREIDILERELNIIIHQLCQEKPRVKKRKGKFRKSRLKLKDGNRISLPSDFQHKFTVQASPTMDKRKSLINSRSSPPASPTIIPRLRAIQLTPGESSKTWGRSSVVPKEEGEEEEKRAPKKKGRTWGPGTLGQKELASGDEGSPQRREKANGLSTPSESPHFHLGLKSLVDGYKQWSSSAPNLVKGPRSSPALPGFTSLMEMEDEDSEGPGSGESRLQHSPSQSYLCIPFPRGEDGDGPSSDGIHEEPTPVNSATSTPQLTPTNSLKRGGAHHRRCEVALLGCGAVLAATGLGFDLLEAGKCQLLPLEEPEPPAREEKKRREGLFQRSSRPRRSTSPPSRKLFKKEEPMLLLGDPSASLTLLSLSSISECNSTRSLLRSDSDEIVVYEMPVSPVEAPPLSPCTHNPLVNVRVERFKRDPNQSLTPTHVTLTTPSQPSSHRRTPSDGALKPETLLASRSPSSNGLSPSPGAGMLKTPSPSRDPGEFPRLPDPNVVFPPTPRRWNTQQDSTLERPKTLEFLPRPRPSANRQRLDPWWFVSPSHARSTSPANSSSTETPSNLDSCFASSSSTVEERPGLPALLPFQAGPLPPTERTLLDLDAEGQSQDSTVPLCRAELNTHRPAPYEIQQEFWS

[4] = target: Serine/threonine-protein kinase PAK 6 (Homo sapiens) (UniProt Q9NQU5); assay: Inhibition of PAK6 (unknown origin) at 10 uM incubated for 30 mins in presence of [gamma-33P]ATP by multidrop micro reagent based assay relative to control; values are per cent of control
Serine/threonine-protein kinase PAK 6 (Homo sapiens), sequence (Q9NQU5 whole entry, looked up): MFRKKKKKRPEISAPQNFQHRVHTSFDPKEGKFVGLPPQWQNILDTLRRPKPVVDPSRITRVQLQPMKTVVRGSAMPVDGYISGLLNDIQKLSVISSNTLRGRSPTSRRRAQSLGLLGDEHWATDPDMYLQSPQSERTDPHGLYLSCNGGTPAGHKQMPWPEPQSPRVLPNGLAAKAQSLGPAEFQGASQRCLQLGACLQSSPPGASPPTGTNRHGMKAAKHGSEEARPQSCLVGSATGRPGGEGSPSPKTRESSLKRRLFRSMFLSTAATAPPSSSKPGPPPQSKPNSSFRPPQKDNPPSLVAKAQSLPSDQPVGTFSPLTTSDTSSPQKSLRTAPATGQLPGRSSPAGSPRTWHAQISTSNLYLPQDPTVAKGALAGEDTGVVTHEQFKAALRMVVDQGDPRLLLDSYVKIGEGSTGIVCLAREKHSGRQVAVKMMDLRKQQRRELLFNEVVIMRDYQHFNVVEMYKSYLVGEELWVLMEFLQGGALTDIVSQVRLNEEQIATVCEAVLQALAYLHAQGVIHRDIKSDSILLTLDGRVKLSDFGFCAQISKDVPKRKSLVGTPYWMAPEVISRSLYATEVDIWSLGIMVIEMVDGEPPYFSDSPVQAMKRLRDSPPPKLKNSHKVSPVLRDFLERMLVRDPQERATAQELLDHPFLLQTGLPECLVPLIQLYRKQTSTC

[5] = target: T2, Serine/threonine-protein kinase 3 (Homo sapiens) (UniProt Q13188); assay: Inhibition of MST2 (unknown origin) at 10 uM incubated for 30 mins in presence of [gamma-33P]ATP by multidrop micro reagent based assay relative to control; values are per cent of control
T2 sequence (whole entry): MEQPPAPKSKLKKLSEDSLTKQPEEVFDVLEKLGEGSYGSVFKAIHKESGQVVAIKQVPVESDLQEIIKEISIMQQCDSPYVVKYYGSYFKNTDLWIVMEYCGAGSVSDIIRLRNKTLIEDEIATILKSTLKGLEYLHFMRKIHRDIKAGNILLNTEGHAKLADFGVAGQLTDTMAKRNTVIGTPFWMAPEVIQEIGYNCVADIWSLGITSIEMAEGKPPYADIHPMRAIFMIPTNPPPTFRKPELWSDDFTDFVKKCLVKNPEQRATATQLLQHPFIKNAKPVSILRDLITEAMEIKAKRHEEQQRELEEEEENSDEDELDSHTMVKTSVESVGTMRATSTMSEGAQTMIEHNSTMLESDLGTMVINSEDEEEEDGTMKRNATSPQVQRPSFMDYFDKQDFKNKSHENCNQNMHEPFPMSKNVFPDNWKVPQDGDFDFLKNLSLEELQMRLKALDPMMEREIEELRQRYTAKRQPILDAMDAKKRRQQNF

[6] = target: Serine/threonine-protein kinase Chk2 (Homo sapiens) (UniProt O96017); assay: Inhibition of CHK2 (unknown origin) at 10 uM incubated for 30 mins in presence of [gamma-33P]ATP by multidrop micro reagent based assay relative to control; values are per cent of control
Serine/threonine-protein kinase Chk2 (Homo sapiens), sequence (O96017 whole entry): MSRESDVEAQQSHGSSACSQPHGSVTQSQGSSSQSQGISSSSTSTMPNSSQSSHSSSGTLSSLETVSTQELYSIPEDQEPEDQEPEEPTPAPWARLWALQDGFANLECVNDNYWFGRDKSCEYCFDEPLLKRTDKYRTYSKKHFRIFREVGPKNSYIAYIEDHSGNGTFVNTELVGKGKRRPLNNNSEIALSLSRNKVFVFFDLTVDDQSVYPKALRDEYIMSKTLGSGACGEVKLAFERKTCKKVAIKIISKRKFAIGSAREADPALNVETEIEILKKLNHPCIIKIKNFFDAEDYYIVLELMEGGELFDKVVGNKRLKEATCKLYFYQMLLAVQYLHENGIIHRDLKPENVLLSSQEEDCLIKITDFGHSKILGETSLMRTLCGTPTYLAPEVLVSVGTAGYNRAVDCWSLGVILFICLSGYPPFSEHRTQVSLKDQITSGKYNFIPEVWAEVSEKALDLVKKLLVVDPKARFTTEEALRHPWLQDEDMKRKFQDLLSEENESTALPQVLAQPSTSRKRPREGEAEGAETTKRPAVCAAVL

[7] = target: AMP-activated protein kinase, AMPK (Homo sapiens) (UniProt P54646+O43741+P54619+Q9UGJ0+Q9Y478+Q13131+Q9UGI9); assay: Inhibition of AMPK (unknown origin) at 10 uM incubated for 30 mins in presence of [gamma-33P]ATP by multidrop micro reagent based assay relative to control; format: protein-complex assay
[8] = target: T3, Serine/threonine-protein kinase Nek2 (Homo sapiens) (UniProt P51955); assay: Inhibition of NEK2a (unknown origin) at 1 uM incubated for 30 mins in presence of [gamma-33P]ATP by multidrop micro reagent based assay relative to control; values are per cent of control
T3 sequence (whole entry): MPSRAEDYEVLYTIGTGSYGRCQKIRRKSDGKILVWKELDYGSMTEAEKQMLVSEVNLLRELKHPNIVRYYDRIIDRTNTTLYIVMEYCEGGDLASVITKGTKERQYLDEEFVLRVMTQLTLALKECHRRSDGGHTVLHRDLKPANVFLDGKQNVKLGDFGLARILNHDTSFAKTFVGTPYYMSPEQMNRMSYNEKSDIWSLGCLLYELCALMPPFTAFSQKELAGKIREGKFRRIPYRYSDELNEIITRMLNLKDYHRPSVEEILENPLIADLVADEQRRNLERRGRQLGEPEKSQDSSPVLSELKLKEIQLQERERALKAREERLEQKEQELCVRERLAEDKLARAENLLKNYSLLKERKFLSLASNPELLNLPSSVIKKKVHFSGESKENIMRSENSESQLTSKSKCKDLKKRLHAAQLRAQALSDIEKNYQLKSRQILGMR

Homo sapiens = species on record: Homo sapiens; assay: Inhibition of VEGFR (unknown origin) at 1 uM incubated for 30 mins in presence of [gamma-33P]ATP by multidrop micro reagent based assay relative to control; values are per cent of control
[9] = target: MAP kinase-interacting serine/threonine-protein kinase 1 (Homo sapiens) (UniProt Q9BUB5); assay: Inhibition of MNK1 (unknown origin) at 1 uM incubated for 30 mins in presence of [gamma-33P]ATP by multidrop micro reagent based assay relative to control; values are per cent of control
MAP kinase-interacting serine/threonine-protein kinase 1 (Homo sapiens), sequence (Q9BUB5 whole entry, looked up): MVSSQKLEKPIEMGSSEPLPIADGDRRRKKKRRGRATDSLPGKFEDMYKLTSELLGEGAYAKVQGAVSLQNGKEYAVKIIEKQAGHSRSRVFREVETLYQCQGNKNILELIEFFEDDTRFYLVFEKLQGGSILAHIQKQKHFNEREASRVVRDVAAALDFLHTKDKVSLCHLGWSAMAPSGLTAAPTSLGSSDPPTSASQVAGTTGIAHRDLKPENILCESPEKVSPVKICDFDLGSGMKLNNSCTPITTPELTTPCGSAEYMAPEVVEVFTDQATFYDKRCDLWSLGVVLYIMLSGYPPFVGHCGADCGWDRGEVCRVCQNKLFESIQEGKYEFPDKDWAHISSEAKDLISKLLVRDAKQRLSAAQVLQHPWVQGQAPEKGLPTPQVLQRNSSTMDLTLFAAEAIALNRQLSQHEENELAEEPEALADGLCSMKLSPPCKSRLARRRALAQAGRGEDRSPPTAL

MAP kinase-interacting serine/threonine-protein kinase 2 (Homo sapiens), sequence (Q9HBH9 whole entry, looked up): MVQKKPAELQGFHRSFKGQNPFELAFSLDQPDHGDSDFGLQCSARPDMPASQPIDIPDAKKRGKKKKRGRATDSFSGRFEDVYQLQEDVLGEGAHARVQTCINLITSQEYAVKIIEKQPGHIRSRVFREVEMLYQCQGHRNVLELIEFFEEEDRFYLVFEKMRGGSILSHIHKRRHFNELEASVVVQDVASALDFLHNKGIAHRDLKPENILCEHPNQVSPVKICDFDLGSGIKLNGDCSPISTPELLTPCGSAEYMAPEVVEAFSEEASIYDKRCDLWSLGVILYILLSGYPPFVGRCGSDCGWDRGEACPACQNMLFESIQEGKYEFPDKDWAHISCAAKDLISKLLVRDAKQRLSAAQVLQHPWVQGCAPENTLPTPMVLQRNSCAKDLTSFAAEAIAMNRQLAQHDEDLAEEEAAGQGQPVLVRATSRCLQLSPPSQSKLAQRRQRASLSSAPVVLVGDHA

Structure (SMILES)	residual activity [1]	residual activity [2]	residual activity [3]	residual activity [4]	residual activity [5]	residual activity [6]	inhibition [7]	residual activity [8]	residual activity (Homo sapiens)	residual activity [9]
C[C@@H](N)[C@H]1CC[C@H](C(=O)Nc2ccncc2)CC1	44%	89%	90%	96%	61%	93%	77%	–	–	–
Cc1cncc2cccc(S(=O)(=O)N3CCCNC[C@@H]3C)c12	–	–	–	–	–	–	–	99%	82%	50%
O=S(=O)(c1cccc2cnccc12)N1CCCNCC1 [FASUDIL]	27%	55%	56%	110%	51%	34%	60%	–	–	–
CC1=C(C(=O)Nc2cc3cn[nH]c3cc2F)C(c2ccc(C(F)(F)F)cc2)CC(=O)N1 (stereo not given)	–	–	–	–	–	–	–	106%	117%	91%
